Where no end group is shown, it is not given here. [ ]: non-standard residue; d: D form. hCit = NC(=O)NCCCC[C@H](N)C(=O)O
Legend:
HLA transgenic mice = test: T cell response to Hcit peptides in HLA transgenic mice (screening, ex vivo ELISpot); parameters: species or system mouse; settings: yes/no; Hcit peptide with CpG/MPLA
Method: (§1) C57BL/6 mice (Charles River, UK), HLA-DR4 mice (Model #4149, Taconic, USA), HLA-A2/DR1 (HHDII/DR1, Pasteur Institute), HLA-A2.1+/+HLA-DP4+/+hCD4+/+ (HLA-HHDII/DP4) transgenic mice (EM: 02221, European Mouse Mutant Archive) described in patent WO2013/017545 A1 (EMMA repository, France) were used, aged between 8 and 12 weeks. Peptides were dissolved in PBS to 1 mg/ml and then emulsified (a series of dilutions) with CpG ODN 1826 and MPLA 6 μg/mouse of each (Invivogen, UK). Peptides (25 μg/mouse) were injected subcutaneously at the base of the tail. Mice were immunised at days 1, 7 and 14 for peptide immunisation. Spleens were removed for analysis at day 21 unless stated otherwise.
(§2) ELISpot assays were performed using murine IFNγ, IL-17 and IL-10 capture and detection reagents according to the manufacturer's instructions (Mabtech, Sweden). In brief, anti-IFNγ, IL-17 and IL-10 specific antibodies were coated onto wells of 96-well Immobilin-P plate. Synthetic peptides (at various concentrations) and 5×10^5 per well splenocytes were added to wells of the plate in quadruplicate Tumour target cells were added where relevant at 5×10^4/well in triplicate and plates incubated for 40 hrs at 37° C. After incubation, captured IFNγ, IL-10 and IL-17 were detected by biotinylated anti-IFNγ, IL-10 and IL-17 antibodies and developed with a streptavidin alkaline phosphatase and chromogenic substrate. Lipopolysaccharide (LPS; 5 μg/ml) was used as a positive control. For MHC blocking studies, anti-CD4 blocking antibody (GK1.5) or anti-CD4 blocking antibody (RPA-T4) for HHDII/DP4 mice which express human CD4 and anti-CD8 blocking antibody (2.43) from Bioxcell were used at 20 μg/ml. Spots were analysed and counted using an automated plate reader (Cellular Technologies Ltd).
(§3) Screening was performed to identify potential homocitrullinated vimentin epitopes in mice. Mice were immunised with pools of homocitrullinated peptides. […] Each pool was administered as three immunisations containing 20 μg of each peptide and CpG/MPLA as an adjuvant on day 1, 8 and 15. On day 21 the mice were culled and the immune responses to each peptide within the immunising pool were assessed by ex vivo ELISpot. Given that different mouse strains have different MHC repertoires a number of strains were used for screening. Peptide responses were assessed in transgenic strains expressing human DR4 or HHDII/DR1 in a C57BL/6 background (see methods).
(§4) Screening was performed to identify potential homocitrullinated ALDOA epitopes in transgenic HHDII/DP4 and HHDII/DR1 mice. Mice were immunised with pools of human homocitrullinated peptides. […] Each pool was administered as three immunisations containing 20 μg of each peptide and CpG/MPLA as an adjuvant. After 21 days the mice were culled and the immune responses to each peptide within the immunising pool were assessed by ex vivo ELISpot in HHDII/DP4 (FIG. 4b) and HHDII/DR1 mice (FIG. 4d).
as §4, with “Using this combination of predictions, 5 CyK8 peptides containing homocitrulline were synthesised (Table 4). Screening” for “Screening”, “Cyk8” for “ALDOA”, “HHDII/DP4.” for “HHDII/DP4 and HHDII/DR1 mice.”, “10a).” for “4b) and HHDII/DR1 mice (FIG. 4d).”

HLA-HHDII/DR1 mice = test: Ex vivo IFNγ ELISpot after peptide immunisation, HHDII/DR1 mice; assay type: in vivo, mouse; settings: for IFNγ ELISpot response: 3 immunisations with CpG/MPLA, day 21
Method: as §1, §2
as §3, with “methods). […]” for “methods).”
The five selected homocitrullinated Cyk8 peptides were also screened in HHDII/DR1 transgenic mice. […] Response to Cyk8 112Hcit peptide in the HHDII/DR1 mice was lost in the presence of CD8 blocking antibody but less effect of the CD4 blocking antibody was seen (FIG. 12b). […] Responses to homocitrullinated Cyk8 peptides show both CD4 and CD8 mediated responses.

[1] = test system: PBMCs from healthy donors; test: CFSE proliferation assay, CD25-depleted PBMCs of healthy donors; assay type: cell-based, human; settings: 10 μg/ml peptide, day 10, vs media control
Method: Peripheral blood samples were drawn into lithium heparin tubes (Becton Dickinson) and processed immediately following venepuncture. PBMCs were isolated by density gradient centrifugation using Ficoll-Hypaque. Proliferation and cultured ELISpot assay of PBMCs were performed immediately after isolation. For CD25 depletion PBMCs were processed as above and […] using anti-CD25 microbeads and MACS Cell Separation Columns (Miltenyi).
Briefly, a 50 μM stock solution in warm PBS was prepared from a master solution of 5 mM in dimethyl sulfoxide (DMSO). CFSE was rapidly added to PBMCs (5×10^6 cells/ml loading buffer (PBS with 5% v/v heat inactivated FCS)) to achieve a final concentration of 5 μM. PBMCs were incubated at room temperature in the dark for 5 mins after which non-cellular incorporated CFSE was removed by washing twice with excess (×10 v/v volumes) of loading buffer (300g ×10 mins). Cells were made up in complete media to 1.5×10^6/mL and plated and stimulated with vehicle (negative control), PHA (positive control, final concentration 10 μg/ml) or peptide (10 μg/ml) as described above.
On day 10, 500 μl of cells were removed from culture, washed in PBS and stained with 1:50 dilution of anti-CD4 (PE-Cy5, clone RPA-T4, ThermoFisher), anti-CD8 efluor 450, clone RPA-T8, ThermoFisher) and anti-CD134 (PE-Cy7, Clone REA621, Miltenyi). […] Stained samples were analysed immediately on a MACSQuant 10 flow cytometer equipped with MACSQuant software version 2.8.168.16380.
Determination as to the existence of a repertoire of T cells for carbamylated epitopes in humans was investigated using PBMCs from normal, healthy donors. […] Cells were labelled with CFSE and proliferation was monitored after stimulation with homocitrulline peptides. […]
Determination as to the existence of a repertoire of T cells for carbamylated Cyk8 epitopes in humans was investigated using PBMCs from seven normal, healthy donors. […] Cells were labelled with CFSE and proliferation was monitored after stimulation with Cyk8 Hcit peptides.

Substance | T cell response (HLA transgenic mice) | IFNγ response in presence of CD4 blocking antibody (HLA-HHDII/DR1 mice) | IFNγ response in presence of CD8 blocking antibody (HLA-HHDII/DR1 mice) | cross reactivity of Hcit response to wt peptide (HLA-HHDII/DR1 mice) | IFNγ ELISpot response (HLA-HHDII/DR1 mice) | CD4 T cell proliferation [1]
NYID-Hcit-VRFLEQQN-Hcit-ILLAEL (NYID[hCit]VRFLEQQN[hCit]ILLAEL) [Vimentin 116-135 Hcit] | yes | significantly decreased | not in the presence of the CD8 blocking antibody | no cross reactivity | significant response | significant CD4 proliferation
EIN-hcit-RTEMENEFVLI-hcit-hcit-DVDE (EIN[hCit]RTEMENEFVLI[hCit][hCit]DVDE) [Cyk8 182-202 Hcit] | Yes |  |  |  |  | 
LEQQN-hcit-MLET-hcit-WSLLQQQ-hcit-T (LEQQN[hCit]MLET[hCit]WSLLQQQ[hCit]T) [Cyk8 112-131 Hcit] | Yes | less effect | lost | minimal cross reactivity | Significant responses | 
LREYQELMNV-hcit-LALDIEI (LREYQELMNV[hCit]LALDIEI) [Cyk8 371-388 Hcit] | Yes | lost | not with the CD8 blocking antibody | minimal cross reactivity | Significant responses | 
IGGVILFHETLYQ-hcit-ADDGRP (IGGVILFHETLYQ[hCit]ADDGRP) [Aldolase A 74-93 Hcit] | yes |  |  |  |  | significant CD4 proliferation
KFASFID-Hcit-VRFLEQQN-Hcit-MLE (KFASFID[hCit]VRFLEQQN[hCit]MLE) [Cyk8 101-120 Hcit] | Yes |  |  |  |  | 
HACTQ-hcit-FSH(N)EEIAMATVTA (HACTQ[hCit]FSHNEEIAMATVTA; not fully specified; printed as HACTQ-hcit-FSH(N)EEIAMATVTA) [Aldolase A 238-256 Hcit] | yes |  |  |  |  | 
hcit-DGADFA-hcit-WRCVL-hcit-IGEH ([hCit]DGADFA[hCit]WRCVL[hCit]IGEH) [Aldolase A 140-157 Hcit] | yes |  |  | significantly higher | stimulated responses | significant CD4 proliferation
hcit-LALDIEIATYR-hcit-LLEGEE ([hCit]LALDIEIATYR[hCit]LLEGEE) [Cyk8 381-399 Hcit] | Yes |  |  |  |  | 
